# Source: ChEMBL document CHEMBL2176970, “Discovery and optimization of a series of 3-(3-phenyl-3H-imidazo[4,5-b]pyridin-2-yl)pyridin-2-amines: orally bioavailable, selective, and potent ATP-independent Akt inhibitors” (J Med Chem, 2012)
# Assays:
# [1] = target: Proto-oncogene tyrosine-protein kinase receptor Ret (Homo sapiens) (UniProt P07949); experiment: Inhibition of RET using fluorescent labelled substrate at 5 uM by caliper method
# [2] = target: Protein kinase C gamma type (Homo sapiens) (UniProt P05129); experiment: Inhibition of PKCgamma using fluorescent labelled substrate at 5 uM by caliper method
# [3] = Half life in male CD1 mouse liver microsomes at 1 uM by LC/MS/MS; assay type: ADME, Microsome
# [4] = target: Serine/threonine-protein kinase PAK 3 (Homo sapiens) (UniProt O75914); experiment: Inhibition of PAK3 using fluorescent labelled substrate at 5 uM by caliper method
# Serine/threonine-protein kinase PAK 3 (Homo sapiens), sequence (O75914 whole entry, looked up): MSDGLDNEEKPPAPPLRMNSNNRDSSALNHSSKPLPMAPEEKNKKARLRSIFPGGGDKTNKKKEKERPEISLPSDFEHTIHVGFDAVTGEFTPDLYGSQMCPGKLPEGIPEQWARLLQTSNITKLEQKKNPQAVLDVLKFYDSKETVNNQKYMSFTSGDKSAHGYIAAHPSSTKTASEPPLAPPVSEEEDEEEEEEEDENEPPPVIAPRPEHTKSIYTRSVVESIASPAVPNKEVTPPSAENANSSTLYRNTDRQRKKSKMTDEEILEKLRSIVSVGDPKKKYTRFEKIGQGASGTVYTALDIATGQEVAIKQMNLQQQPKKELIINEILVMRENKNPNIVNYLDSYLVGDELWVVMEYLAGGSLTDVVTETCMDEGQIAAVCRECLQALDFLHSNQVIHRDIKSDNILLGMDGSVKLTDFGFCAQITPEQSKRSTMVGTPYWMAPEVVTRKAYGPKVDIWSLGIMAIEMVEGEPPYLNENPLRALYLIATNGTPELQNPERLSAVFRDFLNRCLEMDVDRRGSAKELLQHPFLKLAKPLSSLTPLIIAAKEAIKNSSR
# [5] = target: cAMP-dependent protein kinase catalytic subunit PRKX (Homo sapiens) (UniProt P51817); experiment: Inhibition of PRKX using fluorescent labelled substrate at 5 uM by caliper method
# cAMP-dependent protein kinase catalytic subunit PRKX (Homo sapiens), sequence (P51817 whole entry): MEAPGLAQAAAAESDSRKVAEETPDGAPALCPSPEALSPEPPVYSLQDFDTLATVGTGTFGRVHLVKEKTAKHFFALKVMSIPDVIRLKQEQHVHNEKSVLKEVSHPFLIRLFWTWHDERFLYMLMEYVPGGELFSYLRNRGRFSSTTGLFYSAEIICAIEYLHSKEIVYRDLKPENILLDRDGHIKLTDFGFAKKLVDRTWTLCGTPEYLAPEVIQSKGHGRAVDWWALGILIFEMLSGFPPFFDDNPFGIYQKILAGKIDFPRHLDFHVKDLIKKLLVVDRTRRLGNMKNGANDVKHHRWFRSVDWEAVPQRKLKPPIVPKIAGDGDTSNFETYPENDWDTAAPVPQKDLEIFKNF
# [6] = target: T1, RAC-alpha serine/threonine-protein kinase (Homo sapiens, UniProt P31749); details: Sf9
# T1 sequence (P31749 whole entry): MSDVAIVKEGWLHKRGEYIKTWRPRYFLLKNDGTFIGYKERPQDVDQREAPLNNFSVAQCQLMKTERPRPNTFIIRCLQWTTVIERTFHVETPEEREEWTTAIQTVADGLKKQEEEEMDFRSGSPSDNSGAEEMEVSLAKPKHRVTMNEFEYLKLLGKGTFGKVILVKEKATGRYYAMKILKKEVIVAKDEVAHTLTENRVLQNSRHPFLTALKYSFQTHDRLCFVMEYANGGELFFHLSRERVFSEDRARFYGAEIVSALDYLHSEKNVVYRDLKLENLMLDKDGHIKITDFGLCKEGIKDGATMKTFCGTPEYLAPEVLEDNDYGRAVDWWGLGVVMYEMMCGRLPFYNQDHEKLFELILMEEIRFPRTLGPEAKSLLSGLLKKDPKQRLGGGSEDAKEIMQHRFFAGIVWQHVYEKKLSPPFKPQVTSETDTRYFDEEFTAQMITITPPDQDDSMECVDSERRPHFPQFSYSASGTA
# [7] = target: Serine/threonine-protein kinase pim-1 (Homo sapiens) (UniProt P11309); experiment: Inhibition of PIM1 using fluorescent labelled substrate at 5 uM by caliper method
# Serine/threonine-protein kinase pim-1 (Homo sapiens), sequence (P11309 whole entry, looked up): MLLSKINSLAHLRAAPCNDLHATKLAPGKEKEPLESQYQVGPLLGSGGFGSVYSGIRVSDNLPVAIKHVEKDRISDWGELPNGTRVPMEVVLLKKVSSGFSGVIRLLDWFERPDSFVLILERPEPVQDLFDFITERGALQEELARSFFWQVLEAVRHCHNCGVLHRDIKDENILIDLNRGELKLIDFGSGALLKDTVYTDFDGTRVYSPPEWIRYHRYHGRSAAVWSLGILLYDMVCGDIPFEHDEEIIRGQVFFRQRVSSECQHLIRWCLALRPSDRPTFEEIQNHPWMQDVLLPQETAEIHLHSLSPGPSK
# [8] = target: Protein kinase C alpha type (Homo sapiens) (UniProt P17252); experiment: Inhibition of PKCalpha using fluorescent labelled substrate at 5 uM by caliper method
# [9] = target: Macrophage colony-stimulating factor 1 receptor (Homo sapiens) (UniProt P07333); experiment: Inhibition of FMS using fluorescent labelled substrate at 5 uM by caliper method
# [10] = test system: AN3-CA; experiment: Antiproliferative activity against human AN3CA cells after 72 hrs by MTS assay; assay type: functional, cell-based
# [11] = target: Angiopoietin-1 receptor (Homo sapiens) (UniProt Q02763); experiment: Inhibition of TIE2 using fluorescent labelled substrate at 5 uM by caliper method
# [12] = target: Cyclin-dependent kinase 5/CDK5 activator 1 (Homo sapiens) (UniProt Q00535+Q15078); experiment: Inhibition of CDK5/p35 using fluorescent labelled substrate at 5 uM by caliper method; assay type: protein-complex assay
# [13] = target: Ribosomal protein S6 kinase alpha-3 (Homo sapiens) (UniProt P51812); experiment: Inhibition of RSK2 using fluorescent labelled substrate at 5 uM by caliper method
# [14] = target: Serine/threonine-protein kinase Sgk2 (Homo sapiens) (UniProt Q9HBY8); experiment: Inhibition of SGK2 using fluorescent labelled substrate at 5 uM by caliper method
# [15] = Inhibition of PKA using fluorescent labelled substrate at 5 uM by caliper method
# [16] = test system: A2780; experiment: Antiproliferative activity against human A2780 cells after 72 hrs by MTS assay; assay type: functional, cell-based; details: A2780, 72 h
# [17] = target: RAC-beta serine/threonine-protein kinase (Homo sapiens, UniProt P31751); experiment: Binding affinity to Akt2 (1 to 481) expressed in Sf9 cells assessed as change in melting temperature at 15 uM
# [18] = target: T1, RAC-alpha serine/threonine-protein kinase; experiment: Inhibition of Akt1 in human AN3CA cells assessed as phosphorylation PRAS40 at T246 after 2 hrs by Western Blot analysis; assay type: cell-based, AN3-CA
# [19] = target: Cyclin-dependent kinase 2/cyclin E (Homo sapiens) (UniProt P24864+P24941+O96020); experiment: Inhibition of CDK2/cyclinE using fluorescent labelled substrate at 5 uM by caliper method; assay type: protein-complex assay
# [20] = target: Ribosomal protein S6 kinase alpha-4 (Homo sapiens) (UniProt O75676); experiment: Inhibition of MSK2 using fluorescent labelled substrate at 5 uM by caliper method
# [21] = target: Calcium/calmodulin-dependent protein kinase type II subunit delta (Homo sapiens) (UniProt Q13557); experiment: Inhibition of CAMK2delta using fluorescent labelled substrate at 5 uM by caliper method
# Calcium/calmodulin-dependent protein kinase type II subunit delta (Homo sapiens), sequence (Q13557 whole entry): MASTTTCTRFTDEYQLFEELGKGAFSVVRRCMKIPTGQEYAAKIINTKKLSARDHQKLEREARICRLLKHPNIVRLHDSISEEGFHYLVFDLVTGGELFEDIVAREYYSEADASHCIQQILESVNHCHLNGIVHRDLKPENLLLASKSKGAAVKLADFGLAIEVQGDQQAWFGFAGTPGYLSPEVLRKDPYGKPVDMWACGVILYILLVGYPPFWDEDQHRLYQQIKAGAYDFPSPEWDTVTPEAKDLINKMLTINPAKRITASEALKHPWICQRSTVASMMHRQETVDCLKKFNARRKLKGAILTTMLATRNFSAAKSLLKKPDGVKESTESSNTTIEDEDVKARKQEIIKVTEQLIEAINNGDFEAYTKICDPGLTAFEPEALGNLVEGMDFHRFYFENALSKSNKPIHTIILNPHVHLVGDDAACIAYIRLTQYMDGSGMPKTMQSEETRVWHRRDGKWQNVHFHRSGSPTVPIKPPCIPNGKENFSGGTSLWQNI
# [22] = target: Rho-associated protein kinase 1 (Homo sapiens) (UniProt Q13464); experiment: Inhibition of ROCK1 using fluorescent labelled substrate at 5 uM by caliper method
# [23] = target: T1, RAC-alpha serine/threonine-protein kinase; experiment: Inhibition of Akt 1 in human A2780 cells assessed as phosphorylation of Akt at T308 after 2 hrs by Western Blot analysis; assay type: cell-based
# [24] = target: Protein kinase C beta type (Homo sapiens) (UniProt P05771); experiment: Inhibition of PKCbeta1 using fluorescent labelled substrate at 5 uM by caliper method
# Protein kinase C beta type (Homo sapiens), sequence (P05771 2-671 limits assumed): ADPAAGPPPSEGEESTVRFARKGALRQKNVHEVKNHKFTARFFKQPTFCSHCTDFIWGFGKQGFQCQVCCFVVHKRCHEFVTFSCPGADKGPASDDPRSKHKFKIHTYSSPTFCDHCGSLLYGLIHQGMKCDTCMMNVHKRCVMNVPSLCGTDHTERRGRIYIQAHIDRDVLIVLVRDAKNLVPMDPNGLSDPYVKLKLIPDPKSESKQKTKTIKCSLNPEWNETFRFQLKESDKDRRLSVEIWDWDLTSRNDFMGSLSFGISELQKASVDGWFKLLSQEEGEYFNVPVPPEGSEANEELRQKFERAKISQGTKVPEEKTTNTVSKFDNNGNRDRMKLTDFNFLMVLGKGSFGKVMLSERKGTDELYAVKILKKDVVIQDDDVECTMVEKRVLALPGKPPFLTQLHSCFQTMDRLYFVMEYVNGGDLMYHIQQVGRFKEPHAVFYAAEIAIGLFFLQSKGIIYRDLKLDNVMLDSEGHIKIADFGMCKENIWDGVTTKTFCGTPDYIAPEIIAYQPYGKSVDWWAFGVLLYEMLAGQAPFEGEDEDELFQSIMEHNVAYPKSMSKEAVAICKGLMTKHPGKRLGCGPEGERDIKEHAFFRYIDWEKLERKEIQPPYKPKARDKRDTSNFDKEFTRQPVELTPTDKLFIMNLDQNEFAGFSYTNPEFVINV
# [25] = target: Protein kinase C theta type (Homo sapiens) (UniProt Q04759); experiment: Inhibition of PKCtheta using fluorescent labelled substrate at 5 uM by caliper method
# Protein kinase C theta type (Homo sapiens), sequence (Q04759 whole entry, looked up): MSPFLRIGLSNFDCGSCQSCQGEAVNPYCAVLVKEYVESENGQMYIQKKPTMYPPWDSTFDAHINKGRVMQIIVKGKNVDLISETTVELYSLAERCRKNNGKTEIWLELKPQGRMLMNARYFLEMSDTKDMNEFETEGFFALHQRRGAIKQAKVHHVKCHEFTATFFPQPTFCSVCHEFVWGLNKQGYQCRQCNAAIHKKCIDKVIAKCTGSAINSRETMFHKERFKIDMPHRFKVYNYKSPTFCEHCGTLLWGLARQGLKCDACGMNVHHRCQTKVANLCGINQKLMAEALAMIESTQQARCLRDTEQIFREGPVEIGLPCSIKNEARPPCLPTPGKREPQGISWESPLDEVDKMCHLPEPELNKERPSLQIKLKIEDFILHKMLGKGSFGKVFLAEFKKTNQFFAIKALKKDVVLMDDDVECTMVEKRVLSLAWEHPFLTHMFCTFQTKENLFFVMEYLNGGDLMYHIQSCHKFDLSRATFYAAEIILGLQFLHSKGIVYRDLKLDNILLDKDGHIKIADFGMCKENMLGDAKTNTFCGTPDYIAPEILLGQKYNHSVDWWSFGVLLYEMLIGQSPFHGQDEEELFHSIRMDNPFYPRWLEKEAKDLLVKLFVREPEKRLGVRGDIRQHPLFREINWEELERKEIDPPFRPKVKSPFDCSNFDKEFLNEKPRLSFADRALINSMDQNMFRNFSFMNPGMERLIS
# [26] = target: Protein kinase C eta type (Homo sapiens) (UniProt P24723); experiment: Inhibition of PKCeta using fluorescent labelled substrate at 5 uM by caliper method
# Protein kinase C eta type (Homo sapiens), sequence (P24723 whole entry): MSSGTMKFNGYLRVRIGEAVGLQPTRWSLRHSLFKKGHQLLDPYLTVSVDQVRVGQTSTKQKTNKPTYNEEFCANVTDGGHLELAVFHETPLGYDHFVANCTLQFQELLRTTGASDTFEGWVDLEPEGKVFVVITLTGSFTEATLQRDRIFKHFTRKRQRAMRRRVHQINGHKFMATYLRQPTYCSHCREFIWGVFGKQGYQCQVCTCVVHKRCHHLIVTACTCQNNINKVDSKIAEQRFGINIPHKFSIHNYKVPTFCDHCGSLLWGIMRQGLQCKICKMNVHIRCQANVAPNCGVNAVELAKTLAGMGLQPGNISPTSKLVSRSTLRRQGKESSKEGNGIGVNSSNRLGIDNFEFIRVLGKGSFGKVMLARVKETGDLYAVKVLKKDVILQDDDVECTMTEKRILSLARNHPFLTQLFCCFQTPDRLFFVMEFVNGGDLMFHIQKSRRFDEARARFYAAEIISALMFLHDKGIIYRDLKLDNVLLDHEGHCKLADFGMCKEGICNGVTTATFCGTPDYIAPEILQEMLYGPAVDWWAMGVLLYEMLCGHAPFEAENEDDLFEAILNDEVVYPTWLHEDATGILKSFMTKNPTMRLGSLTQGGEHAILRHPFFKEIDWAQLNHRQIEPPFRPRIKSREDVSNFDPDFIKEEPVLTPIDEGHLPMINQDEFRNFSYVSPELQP
# [27] = target: MAP kinase-activated protein kinase 2 (Homo sapiens) (UniProt P49137); experiment: Inhibition of MAPKAPK2 using fluorescent labelled substrate at 5 uM by caliper method
# MAP kinase-activated protein kinase 2 (Homo sapiens), sequence (P49137 whole entry, looked up): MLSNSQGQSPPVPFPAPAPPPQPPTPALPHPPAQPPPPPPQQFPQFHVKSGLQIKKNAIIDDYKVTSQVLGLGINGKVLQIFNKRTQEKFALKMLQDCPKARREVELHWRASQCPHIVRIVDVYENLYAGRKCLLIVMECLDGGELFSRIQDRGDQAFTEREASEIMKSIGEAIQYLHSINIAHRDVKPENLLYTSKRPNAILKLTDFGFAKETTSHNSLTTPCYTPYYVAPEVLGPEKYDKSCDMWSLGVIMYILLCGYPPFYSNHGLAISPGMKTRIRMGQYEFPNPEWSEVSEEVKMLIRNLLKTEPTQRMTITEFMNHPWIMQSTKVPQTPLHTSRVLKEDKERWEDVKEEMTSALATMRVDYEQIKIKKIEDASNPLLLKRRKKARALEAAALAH
# [28] = Half life in female CD1 mouse liver microsomes at 1 uM by LC/MS/MS; assay type: ADME, Microsome
# [29] = target: T1, RAC-alpha serine/threonine-protein kinase; experiment: Inhibition of Akt1 (1 to 480) expressed in Sf9 cells by indirect affinity mass spectrometry assay
# [30] = target: T1, RAC-alpha serine/threonine-protein kinase; experiment: Inhibition of Akt1 (1 to 480) expressed in Sf9 cells using biotin-GRPRTSSFAEG as substrate after 20 mins by Alpha-screen assay
Compound,inhibition [1],inhibition [2],half-life at 1 µM [3],inhibition [4],inhibition [5],ΔTm [6],inhibition [7],inhibition [8],inhibition [9],IC50 [10],inhibition [11],inhibition [12],inhibition [13],inhibition [14],inhibition [15],IC50 [16],ΔTm [17],IC50 [18],inhibition [19],inhibition [20],also measured
Nc1ncccc1-c1nc2cccnc2n1-c1ccc(CC(=O)Nc2ccccc2)cc1,> 25%,> 25%,> 1 h,> 25%,> 25%,6.7 °C,> 25%,> 25%,> 25%,70 µM,> 25%,> 25%,> 25%,> 25%,> 25%,57 µM,1.2 °C,> 10 µM,> 25%,> 25%,inhibition [21]: > 25%; inhibition [22]: > 25%; IC50 [23]: 1.3 µM; inhibition [24]: > 25%; inhibition [25]: > 25%; inhibition [26]: > 25%; inhibition [27]: > 25%; half-life at 1 µM [28]: > 1 h; IC50 [29]: 14 µM
Nc1ncccc1-c1nc2cccnc2n1-c1ccc(CNC(=O)c2ccccc2)cc1,> 25%,> 25%,> 1 h,> 25%,> 25%,6.4 °C,> 25%,> 25%,> 25%,> 100 µM,> 25%,> 25%,> 25%,> 25%,> 25%,> 100 µM,1.3 °C,> 10 µM,> 25%,> 25%,IC50 [30]: 0.023 µM; inhibition [21]: > 25%; inhibition [22]: > 25%; IC50 [23]: 0.37 µM; inhibition [24]: > 25%; inhibition [25]: > 25%; inhibition [26]: > 25%; inhibition [27]: > 25%; half-life at 1 µM [28]: > 1 h
